Test results from the supplement of paper PMC10307832.

How the values were obtained:
Experiment in all cases: relative viability (nuclei count vs DMSO), 5 days (fraction); higher = more cells survive
AZ23 = compound: CC(C)Oc1cc(Nc2nc(N[C@@H](C)c3ccc(F)cn3)ncc2Cl)n[nH]1 [AZ23]
Procedure, shortened: (§1)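 Acceptance criteria were a control CV below 25% and at least one doubling per plate. Lung cancer cell lines in 1536-well plates got five library-drug doses (not always all listed) √10 apart by pinning and were left 5 days with no medium change. Viability divides treated-well nuclei by vehicle-well nuclei and is the median across plates. Nuclei were counted by MetaXpress from 4× Hoechst images.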

HG-5-88-01 = compound: CC(C)S(=O)(=O)C1=CC=CC=C1NC2=NC(=NC(=C2Cl)N)NC3=C(C=C(C=C3)N4CCC(CC4)C(=O)N)OC [HG-5-88-01]
Procedure, shortened: as §1

Embelin = compound: CCCCCCCCCCCC1=C(O)C(=O)C=C(O)C1=O [Embelin]
Procedure, shortened: as §1

[1] = compound: C[C@@H]1CN(CC(=O)Nc2ccc3c(c2)Cc2cccc(-c4cc(=O)cc(N5CCOCC5)o4)c2S3)C[C@H](C)O1
Procedure, shortened: as §1

Vatalanib = compound: Clc1ccc(Nc2nnc(Cc3ccncc3)c3ccccc23)cc1 [Vatalanib]
Procedure, shortened: as §1

| Cell Line | relative viability (AZ23; 0.01 µM) | relative viability (AZ23; 0.03162 µM) | relative viability (AZ23; 0.3162 µM) | relative viability (HG-5-88-01; 0.04 µM) | relative viability (HG-5-88-01; 0.1265 µM) | relative viability (HG-5-88-01; 0.4 µM) | relative viability (HG-5-88-01; 1.265 µM) | relative viability (HG-5-88-01; 4 µM) | relative viability (Embelin; 0.08 µM) | relative viability (Embelin; 0.8 µM) | relative viability (Embelin; 2.53 µM) | relative viability (Embelin; 8 µM) | relative viability ([1]; 0.04 µM) | relative viability ([1]; 0.1265 µM) | relative viability ([1]; 0.4 µM) | relative viability ([1]; 4 µM) | relative viability (Vatalanib; 0.04 µM) | relative viability (Vatalanib; 0.1265 µM) | relative viability (Vatalanib; 0.4 µM) | relative viability (Vatalanib; 1.265 µM) | relative viability (Vatalanib; 4 µM) |
| --- | --- | --- | --- | --- | --- | --- | --- | --- | --- | --- | --- | --- | --- | --- | --- | --- | --- | --- | --- | --- | --- |
| NCI-H1792 | 0.788 | 1.07 | 1.1 | 1.01 | 1.08 | 1 | 0.834 | 1.03 | 0.924 | 1.07 | 1.11 | 1.06 | 0.895 | 0.8 | 0.9 | 0.797 | 0.912 | 0.707 | 0.861 | 0.827 | 0.782 |
| NCI-H661 | 1.05 | 1.04 | 0.967 | 0.992 | 1.01 | 1.1 | 1.01 | 1.01 | 1.01 | 1.06 | 1.02 | 1.04 | 0.864 | 0.97 | 0.951 | 0.916 | 0.975 | 0.971 | 0.983 | 0.906 | 0.988 |
| NCI-H1648 | 0.794 | 1.05 | 0.788 | 0.809 | 0.728 | 0.878 | 0.368 | 0.451 | 0.963 | 1.21 | 0.92 | 0.954 | 0.871 | 0.796 | 1.06 | 0.757 | 0.958 | 0.938 | 0.893 | 0.889 | 0.939 |
| NCI-H2023 |  | 1.11 | 1.13 | 1.04 | 0.958 | 0.795 | 0.725 | 0.633 | 1 | 0.926 | 1.07 | 0.736 | 1.04 | 0.937 | 0.773 | 0.681 | 1.02 | 0.88 | 1.12 | 0.893 | 0.933 |
| NCI-H520 | 0.915 | 1.11 | 0.92 | 0.994 | 1.05 | 0.959 | 1 | 1.02 | 1.07 | 1.1 | 1.11 | 0.931 | 0.797 | 1.05 | 0.901 | 0.94 | 1.07 | 0.92 | 1.08 | 0.881 | 0.841 |
| SK-LU-1 |  | 1.14 | 1.08 | 0.982 | 1.04 | 0.998 | 0.876 | 0.708 | 1.13 | 1.19 | 1.26 | 0.928 | 1.04 | 1.04 | 1.1 | 0.853 | 1.09 | 0.993 | 1.14 | 1.04 | 1.05 |
| NCI-H1666 | 0.988 | 1.03 | 0.976 | 1.03 | 1.03 | 0.847 | 0.869 | 0.864 | 0.939 | 1.06 | 0.976 | 1.01 | 0.983 | 1.05 | 1.03 | 0.903 | 0.958 | 1.03 | 1.04 | 1 | 0.981 |
| NCI-H838 | 0.987 | 0.993 | 1 | 0.978 | 1.03 | 0.79 | 0.676 | 0.655 | 0.982 | 1.05 | 1.06 | 0.896 | 0.887 | 0.93 | 0.883 | 0.813 | 1.02 | 0.928 | 1.09 | 0.945 | 0.942 |
| NCI-H1734 | 1.03 | 1.01 | 0.983 | 0.88 | 0.978 | 0.959 | 0.886 | 1.1 | 1.05 | 1.23 | 1.19 | 0.874 | 1.01 | 1.03 | 1.04 | 1.12 | 0.977 | 0.916 | 1.11 | 0.95 | 1.06 |
| LCLC-103H | 1.04 | 0.993 | 1.08 | 1.04 | 1.04 | 0.86 | 0.96 | 0.657 | 0.999 | 1.06 | 1.04 | 0.8 | 1.01 | 0.903 | 0.793 | 0.926 | 1.05 | 0.932 | 1.01 | 0.993 | 0.977 |
| BEN | 1.05 | 1.12 | 0.994 | 0.866 | 1.07 | 0.884 | 0.873 | 1.05 | 1.04 | 1.14 | 1.1 | 1.02 | 0.929 | 0.881 | 1.12 | 0.955 | 0.954 | 0.904 | 0.951 | 0.882 | 0.946 |
| NCI-H2405 | 0.982 | 1.09 | 0.911 | 1.03 | 1 | 0.925 | 0.802 | 0.901 | 1.09 | 1.09 | 0.993 | 0.921 | 1.09 | 1.05 | 0.972 | 0.983 | 1.01 | 0.919 | 0.732 | 0.919 | 0.946 |
| ABC-1 | 0.82 | 1.18 | 1.02 | 0.825 | 1 | 0.732 | 0.75 | 0.778 | 0.866 | 1.11 | 0.893 | 1.03 |  | 1.11 | 0.983 | 1.12 | 0.977 | 0.647 | 0.803 | 0.89 | 0.851 |
| 201T | 1.05 | 1.06 | 1.07 | 1.01 | 0.941 | 0.951 | 1.03 | 1.03 | 0.985 | 1.02 | 1.11 | 0.966 | 0.996 | 0.944 | 0.992 | 0.961 | 0.975 | 0.975 | 1.05 | 0.929 | 0.953 |
